In this assay the test system is MCF-10A cells. The assay can be described thus: TGF-β1 induction of Sema7A gene expression by qRT-PCR. Format: cell-based, human. The following applies: 5 ng/ml, within 18 hours, vs vehicle. As to the method: We then wanted to establish an in vitro system to study the functional role of Sema7A in the breast epithelia. To do so, we assayed the Sema7A expression in human breast cell lines with varying degrees of malignancy using quantitative real-time PCR (qRT-PCR).
We treated MCF-10A cells with 5 ng/ml of TGF-β1 or vehicle for 18, 24 or 36 hours. MCF-10A cells were then assayed for Sema7A gene expression by qRT-PCR. […] TGF-β1 is a key inducer of epithelial to mesenchymal transition (EMT) and Sema7A could serve as a down-stream effecter of TGF-β1 in EMT.

For “TGF-β1: Transforming growth factor beta-1, used to induce Sema7A expression in MCF-10A breast epithelial cells”, the “expression of Sema7A” value is listed as “significantly increased”.

These data come from patent publication US20150111781A1, “ANALYZING SEMAPHORIN7A (Sema7A) LEVELS FOR ASSESSING CANCER METASTATIC POTENTIAL” (Florida Atlantic University, priority 2012, published 2015).
